We go through 3 molecules from US20260217765A1, “NOVEL ANTIMICROBIAL PEPTIDE DESIGNED FROM DUCK-DERIVED ANTIMICROBIAL PEPTIDE ANDUSE THEREOF” (INDUSTRY-ACADEMIC COOPERATION FOUNDATION, CHOSUN UNIVERSITY, priority 2023, published 2026).

A word on the MIC: it is the lowest concentration found to suppress growth. A lower MIC goes with inhibition by little substance.

Converted amounts (≈) assume the structure as drawn. Peptide text beside a SMILES is read from it.

In assay [1] the test system is Acinetobacter baumannii_isolate 1 (antibiotic-resistant). It counts as cell-based, Acinetobacter baumannii. The note with it: isolate 1 (antibiotic-resistant). The essentials:
(§1)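 Antibiotic-resistant A. baumannii isolates grown to mid-log phase, diluted to 2×10^4 cells/100 μL and exposed to 2-fold serial peptide dilutions for 18 h at 37° C. MIC taken as lowest concentration preventing visible growth, read by absorbance at 600 nm; parent peptide dCATH served as control.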

The subject of assay [2] is Acinetobacter baumannii_isolate16 (antibiotic-resistant). It counts as cell-based, Acinetobacter baumannii. The note with it: isolate16 (antibiotic-resistant). The essentials:
as §1

The test system of assay [3] is Acinetobacter baumannii_isolate21 (antibiotic-resistant). It counts as cell-based, Acinetobacter baumannii. The settings on record: isolate21 (antibiotic-resistant). The method in brief:
as §1

The subject of assay [4] is Acinetobacter baumannii_isolate 26 (antibiotic-resistant). It counts as cell-based, Acinetobacter baumannii. The settings on record: isolate 26 (antibiotic-resistant). The essentials: as §1
Assay [5] relates to Acinetobacter baumannii_isolate 10 (antibiotic-resistant). In kind it is cell-based, Acinetobacter baumannii. The settings on record: isolate 10 (antibiotic-resistant). The essentials:
as §1

For assay [6], the system named is Acinetobacter baumannii_isolate 7 (antibiotic-resistant). In kind it is cell-based, Acinetobacter baumannii. The note with it: isolate 7 (antibiotic-resistant). The method in brief: as §1
Assay [7] deals with Acinetobacter baumannii_isolate 24 (antibiotic-resistant). It counts as cell-based, Acinetobacter baumannii. The settings on record: isolate 24 (antibiotic-resistant). The essentials: as §1
Assay [8] concerns Acinetobacter baumannii_isolate 14 (antibiotic-resistant). It counts as cell-based, Acinetobacter baumannii. The note with it: isolate 14 (antibiotic-resistant). The method in brief: as §1
The subject of assay [9] is Acinetobacter baumannii_isolate 25 (antibiotic-resistant). It counts as cell-based, Acinetobacter baumannii. The note with it: isolate 25 (antibiotic-resistant). The essentials:
as §1

Assay [10] deals with Acinetobacter baumannii membrane. Description: Flow cytometry, propidium iodide, action on bacterial membrane. It counts as cell-based. The settings on record: peptide at twice the MIC, 37° C. 10 minutes. The protocol:
To determine whether the peptides prepared in <Example 1> act on bacterial membranes, the parent peptide and the novel peptides dCATH-A1, dCATH-A2, dCATH-A3, dCATH-A4, dCATH-A5, dCATH-A6, and dCATH-A7 were analyzed using flow cytometry.
Specifically, Acinetobacter baumannii was treated with each peptide at twice the minimum inhibitory concentration (MIC), followed by incubation at 37° C. for 10 minutes. The supernatant was then removed by centrifugation at 10,000 rpm, and the bacterial cells were stained with propidium iodide (PI) at a concentration of 10 μg/mL at 4° C. for 30 minutes. Unbound PI was removed by centrifugation, and 1 mL of phosphate-buffered saline (PBS) was added to disperse any cell clumps. The effect of the peptides on the bacterial membrane was then assessed using a Beckman flow cytometer.
(In flow cytometry, cells or beads pass a laser one at a time.)

Assay [11] has as its system plasmid DNA (pRSETB). The experiment in a line: Binding to bacterial DNA, agarose gel electrophoresis. The settings on record: 260 ng plasmid DNA, DNA/peptide ratios 1:1 to 1:4, 37° C. 10 minutes. The protocol:
Accordingly, to further elucidate the mechanism by which these novel peptides exert antimicrobial activity, it was examined whether the novel peptides dCATH-A6 and dCATH-A7 bind to intracellular bacterial DNA using electrophoresis.
Specifically, 260 ng of plasmid DNA (pRSETB) was reacted with each peptide at various ratios (lanes 1 through […] represent DNA only, 1:1, 1:2, 1:3, and 1:4 DNA/peptide ratios, respectively) at 37° C. for 10 minutes. The samples were then subjected to electrophoresis on a 1% agarose gel, stained with ethidium bromide (EtBr), and visualized under UV light.

The test system of assay [12] is Escherichia coli ATCC 25922. In kind it is cell-based. An excerpt: (§2) To compare the antimicrobial activity of the peptides prepared in <Example 1>, the minimum inhibitory concentration (MIC), […] measured. Here, the minimal inhibitory concentration (MIC) refers to the lowest concentration of a substance that prevents visible bacterial growth.
(§3) Specifically, the bacterial strains listed in Table 2 below were obtained and cultured in media suitable for each strain until the mid-log phase. The cultures were then diluted to a concentration of 2×10^4 cells/100 μL and prepared in microtiter plates (Nunc, USA). Subsequently, serial 2-fold dilutions of the peptides prepared in Example 1 were prepared, and 10 μL of each dilution was added to the wells, and the plates were incubated at 37° C. for 18 hours. Absorbance at 600 nm was measured using a microtiter plate reader (Merck ELISA reader, Germany) to determine the MIC values for each bacterial strain. The parent peptide dCATH was used as a control.

In assay [13] the test system is Staphylococcus aureus ATCC 25923. In kind it is cell-based. The settings on record: for MIC: ATCC 25923; for antimicrobial activity compared to the control peptide dCATH: against Staphylococcus aureus strains.
Description: as §2, §3

For assay [14], the system named is Bacillus cereus KCTC 2508. In kind it is cell-based.
Description: as §2, §3

The test system of assay [15] is Acinetobacter baumannii KCTC 1017. In kind it is cell-based. The settings on record: for MIC: KCTC 1017; for antimicrobial activity compared to the control peptide dCATH: against Acinetobacter baumannii.
Description: as §2, §3

Assay [16] concerns Listeria monocytogenes KCTC 3710. In kind it is cell-based.
Description: as §2, §3

Assay [17] has as its system Pseudomonas aeruginosa ATCC 27853. In kind it is cell-based.
Description: as §2, §3

The subject of assay [18] is Acinetobacter baumannii KCTC 2508. It counts as cell-based. The settings on record: various salt concentrations. The protocol:
To determine whether the peptides prepared in <Example 1> retain antimicrobial activity under salt concentrations present in vivo, the minimal inhibitory concentration (MIC) of the peptides was measured under various salt concentrations. Specifically, among the bacterial strains listed in Table 2, Acinetobacter baumannii KCTC 2508 was cultured in suitable medium to the mid-log phase, then diluted to a concentration of 2×10^4 cells/100 μL and dispensed into a microtiter plate (Nunc, USA). The peptides prepared in <Example 1> were serially diluted two-fold under various salt concentration conditions and added to the wells, followed by incubation at 37° C. for 18 hours. Absorbance at 600 nm was measured using a microtiter plate reader (Merck ELISA reader, Germany) to determine the MIC values for each strain. The parent peptide dCATH was used as a control.

Regarding `CC[C@H](C)[C@H](NC(=O)[C@H](C)NC(=O)[C@H](CCCCN)NC(=O)[C@H](CCCCN)NC(=O)[C@@H](NC(=O)[C@H](CC(C)C)NC(=O)[C@H](CCC(N)=O)NC(=O)[C@H](C)NC(=O)[C@H](C)NC(=O)[C@H](CCCNC(=N)N)NC(=O)[C@@H](N)CCCCN)C(C)C)C(=O)N[C@@H](CCCCN)C(=O)N[C@@H](CCCCN)C(=O)N[C@@H](Cc1ccc(O)cc1)C(=O)N[C@@H](CCCNC(=N)N)C(=O)N[C@@H](C)C(=O)N[C@@H](Cc1c[nH]c2ccccc12)C(=O)N[C@@H](CCCCN)C(=O)N[C@@H](CCCNC(=N)N)C(=O)N[C@@H](CCCNC(=N)N)C(N)=O` [dCATH-A6] (H-KRAAQLVKKAIKKYRAWKRR-NH2; N-terminus assumed), the MIC amounted to 1 µM (≈ 2.5 µg/mL) in [1]; 1 µM (≈ 2.5 µg/mL) in [2]; 1 µM (≈ 2.5 µg/mL) in assay [3]; 2 µM (≈ 5 µg/mL) in assay [4]; 2 µM (≈ 5 µg/mL) in [5]; 1 µM (≈ 2.5 µg/mL) in assay [6]. In addition, the minimal inhibitory concentration (MIC) in assay [7] worked out at 1 µM (≈ 2.5 µg/mL); in assay [8], 2 µM (≈ 5 µg/mL); in assay [9], 2 µM (≈ 5 µg/mL); in assay [12], 2 µM (≈ 5 µg/mL); in assay [13], 0.5 µM (≈ 1.25 µg/mL); in assay [14], 2 µM (≈ 5 µg/mL). The minimal inhibitory concentration (MIC) is 1 µM (≈ 2.5 µg/mL) in assay [15], 2 µM (≈ 5 µg/mL) in [16] and 2 µM (≈ 5 µg/mL) in [17]. Further, in [10], the “membrane damage in Acinetobacter baumannii (shift in PI fluorescence signal)” value was “no damage to the bacterial membrane”. For the same molecule, the “binding to DNA (electrophoresis)” value in [11] is recorded as “did bind to DNA”. For the same molecule, the “antimicrobial activity compared to the control peptide dCATH” value is “notably superior activity” in assay [13] and “significantly superior antimicrobial activity” in assay [15]. The “antimicrobial activity (MIC) under salt conditions compared to the parent peptide dCATH” value in assay [18] is given as “lower MIC values than the control”.
In the case of `CC[C@H](C)[C@H](NC(=O)[C@H](C)NC(=O)[C@H](CCCCN)NC(=O)[C@H](CCCCN)NC(=O)[C@@H](NC(=O)[C@H](CC(C)C)NC(=O)[C@H](CCC(N)=O)NC(=O)[C@H](C)NC(=O)[C@H](C)NC(=O)[C@H](CCCNC(=N)N)NC(=O)[C@@H](N)CCCCN)C(C)C)C(=O)N[C@@H](CCCCN)C(=O)N[C@@H](CCCCN)C(=O)N[C@@H](Cc1ccc(O)cc1)C(=O)N[C@@H](CCCNC(=N)N)C(=O)N[C@@H](C)C(=O)N[C@@H](Cc1c[nH]c2ccccc12)C(=O)N[C@@H](CCCCN)C(N)=O` [dCATH-A7, KRAAQLVKKAIKKYRAWK] (H-KRAAQLVKKAIKKYRAWK-NH2; N-terminus assumed), the minimum inhibitory concentration (MIC) in assay [1], in assay [2], in assay [3], in assay [4], in assay [5] and in assay [6] was 1 µM (≈ 2.19 µg/mL) in each case. The MIC in [7] amounted to 1 µM (≈ 2.19 µg/mL); in [8], 1 µM (≈ 2.19 µg/mL); in assay [9] it was 1 µM (≈ 2.19 µg/mL); in [12], 4 µM (≈ 8.74 µg/mL); in [13], 0.5 µM (≈ 1.09 µg/mL); in [14], 1 µM (≈ 2.19 µg/mL). Also, the MIC in [15] stood at 1 µM (≈ 2.19 µg/mL); in [16], 4 µM (≈ 8.74 µg/mL); in assay [17] it was 8 µM (≈ 17.5 µg/mL). Further, the “membrane damage in Acinetobacter baumannii (shift in PI fluorescence signal)” value in [10] is reported as “no damage to the bacterial membrane”. The “binding to DNA (electrophoresis)” value in assay [11] is on record as “did bind to DNA”. In addition, the “antimicrobial activity compared to the control peptide dCATH” value in assay [13] is recorded as “notably superior activity”; in assay [15], “significantly superior antimicrobial activity”. Besides, the “antimicrobial activity (MIC) under salt conditions compared to the parent peptide dCATH” value in [18] is reported as “lower MIC values than the control”.
As for `CC[C@H](C)[C@H](NC(=O)[C@H](C)NC(=O)[C@H](CC(C)C)NC(=O)[C@@H]1CCCN1C(=O)[C@@H](NC(=O)[C@H](CC(C)C)NC(=O)[C@H](CCC(N)=O)NC(=O)[C@H](Cc1c[nH]c2ccccc12)NC(=O)[C@H](Cc1ccccc1)NC(=O)[C@H](CCCNC(=N)N)NC(=O)[C@@H](N)CCCCN)C(C)C)C(=O)N[C@@H](CCCCN)C(=O)N[C@H](C(=O)N[C@@H](Cc1ccc(O)cc1)C(=O)N[C@@H](CCCNC(=N)N)C(=O)N[C@@H](C)C(=O)N[C@@H](Cc1c[nH]c2ccccc12)C(=O)N[C@@H](CCCCN)C(=O)N[C@@H](CCCNC(=N)N)C(=O)N[C@@H](CCCNC(=N)N)C(N)=O)[C@@H](C)CC` [dCATH, reference compound] (H-KRFWQLVPLAIKIYRAWKRR-NH2; N-terminus assumed), the MIC came to 2 µM (≈ 5.26 µg/mL) in assay [1]; 2 µM (≈ 5.26 µg/mL) in assay [2]; 2 µM (≈ 5.26 µg/mL) in assay [3]; 2 µM (≈ 5.26 µg/mL) in [4]; 2 µM (≈ 5.26 µg/mL) in assay [5]; 4 µM (≈ 10.5 µg/mL) in assay [6]. For the same molecule, the MIC in assay [7] turned out to be 4 µM (≈ 10.5 µg/mL); in assay [8], 2 µM (≈ 5.26 µg/mL); in assay [9], 2 µM (≈ 5.26 µg/mL); in assay [12], 2 µM (≈ 5.26 µg/mL); in assay [13] it was 2 µM (≈ 5.26 µg/mL); in assay [14] it was 1 µM (≈ 2.63 µg/mL). The MIC in assay [15], in assay [16] and in assay [17] was 2 µM (≈ 5.26 µg/mL) in each case. The “membrane damage in Acinetobacter baumannii (shift in PI fluorescence signal)” value in [10] is given as “induced membrane damage”. The “binding to DNA (electrophoresis)” value in [11] was “no detectable binding to DNA”.
